Source: ChEMBL document CHEMBL5727102, “Compounds and methods for inhibiting Cif virulence factor” (2019)

Experiment: Biochemical Characterization of Cif Inhibitors: The first step in characterizing the two compounds identified by high throughput screening was to verify that the inhibition was reproducible using fresh preparations. Chemical libraries are often stored for extended periods of time, which can lead to breakdown products contributing to the assay outcome. While the inhibition observed with a fresh …

## NC(Cc1cc(I)c(Oc2cc(I)c(O)c(I)c2)c(I)c1)C(=O)O (stereo unspecified) [THYROXINE]
  IC50: > 100 µM
